The values that follow are results of earlier work, collected in patent publication US20090098217A1, “COMPOSITIONS AND METHODS FOR PROMOTING THICKER HAIR” (priority 2007, published 2009).

In series [1] the test system is 5-alpha-reductase. The note with it: 5 or 10 mg of zinc injected in rat prostate.
For series [2], the system named is 5-alpha-reductase. The note with it: in vitro.

Like-named read-outs stand apart in the source and are kept apart here.

`[Zn]` [zinc]: the 5-alpha-reductase activity result in the series with 5-alpha-reductase [1] was “significantly reduced 5-alpha-reductase activity”. Further, the “conversion of testosterone to DHT” value is listed as “enhance conversion of testosterone to DHT” with 5-alpha-reductase [2] (low concentrations of zinc) and “inhibited it” with 5-alpha-reductase [2] (mM concentrations of zinc).
